Patent US8058243B2, “Method for treating a brain cancer with ifenprodil” (HSC Research and Development Limited Partnership, priority 2006, dated 2011)
Where a name gives a salt, the structure may show the parent alone. Read-outs that look alike come from different tables or passages of the source.

Test system: murine neural precursor cells (neurosphere cultures)
Assay: HTS of LOPAC library against secondary neurosphere cultures, MTT proliferation assay at 3 μM, day 7 (z score, P value)
Assay type: cell-based, mouse
[1] = LOPAC primary screen, neurosphere MTT proliferation, 3 μM, day 7
[2] = yes/no: significantly inhibited neurosphere proliferation (P<0.01) in the primary screen
[3] = yes/no: significantly inhibited neurosphere proliferation in primary screen
[4] = LOPAC library screen, 3 μM, MTT, neurosphere cultures
[5] = yes/no: significantly inhibited neurosphere proliferation (P<0.01) in primary screen
[6] = LOPAC library screen at 3 μM, secondary neurosphere cultures, MTT
[7] = LOPAC screen, neurosphere MTT proliferation, 3 μM, day 7
[8] = primary LOPAC screen, 3 μM, MTT, neurosphere proliferation
[9] = yes/no: significantly inhibited neurosphere proliferation in the primary screen
[10] = LOPAC library screen, 3 μM, MTT, secondary neurosphere cultures, day 7
[11] = yes = significantly inhibited neurosphere proliferation (P<0.01) in the primary screen

Cc1c(C)c2c(c(C)c1O)CCC(C)(CN1CCN(c3cc(N4CCCC4)nc(N4CCCC4)n3)CC1)O2.Cl.Cl (stereo not shown) [U-83836 dihydrochloride]
Z Score: 0.954
Z score [1]: 0.954
Activity [2]: no

CC(O)C(C)OC(=O)[C@@H]1C[C@@H]2c3cccc4c3c(cn4C(C)C)C[C@H]2N(C)C1.O=C(O)/C=C\C(=O)O (stereo partly shown) [LY-53,857 maleate]
Z Score: −0.3382
Z score [1]: −0.338
Activity [2]: no

CC(C)NCC(O)c1ccc(O)c(O)c1.Cl (stereo not shown) [(B1)-Isoproterenol hydrochloride]
Z Score: −0.5717

NC[C@H](O)c1ccc(O)c(O)c1.O=C(O)C(O)C(O)C(=O)O (racemic) [(±)-Norepinephrine (+)bitartrate]
Z score [1]: 0.099
Activity [3]: no

O.c1cnc2c(c1)ccc1cccnc12 [1,10-Phenanthroline monohydrate]
Z Score: −0.8855
Z score [1]: −0.886
Activity [3]: no

CN(C)CCC(c1ccc(Cl)cc1)c1ccccn1.O=C(O)/C=C\C(=O)O (racemic) [(±)-Chlorpheniramine maleate]
Activity: no
Z score: −2.116

CC[N+](CC)(CC)CC(=O)Nc1c(C)cccc1C.[Br-]
Z Score [4]: 0.2653
Z score [1]: 0.265
Activity [5]: no

C[C@]12C=CC(=O)C=C1CC[C@H]1[C@@H]3C[C@@H](O)[C@](O)(C(=O)CO)[C@@]3(C)C[C@H](O)[C@@]12F [Triamcinolone]
Activity: no
Z Score [6]: −0.184
Z score [1]: −0.184

CCCCCCCCCCCCC/C=C/[C@@H](O)[C@@H](N)CO [Sphingosine]
Z Score: 1.404
Z score [1]: 1.404
Activity [3]: no

CC(N)C(O)c1ccc(O)c(O)c1 (single isomer, unassigned; (-)) [(−)-alpha-Methylnorepinephrine]
Z Score: 1.193
Z score [7]: 1.193
Activity [5]: no

COc1cccc(OC)c1OCCNCC1CSc2ccccc2O1 (stereo not shown) [Benoxathian hydrochloride]
Z Score (168 h, 3 µM): 0.2653
Z score (168 h, 3 µM): 0.265
Activity [5]: no

C[C@]12CCC(=O)C=C1CC[C@@H]1[C@@H]2C(=O)C[C@@]2(C)[C@H]1CC[C@]2(O)C(=O)CO [Cortisone]
Z Score [6]: −0.5807
Z score [8]: −0.581
Activity [9]: no

COc1ccc2c(c1)[C@@]13CCCC[C@H]1[C@@H](C2)NCC3.Cl [3-Methoxy-morphanin hydrochloride]
Z Score: −7.714
Z score [1]: −7.714
Activity [2]: yes

Oc1cc2c(cc1O)[C@H]1c3ccccc3CN[C@@H]1CC2 (racemic) [Dihydrexidine hydrochloride]
Z Score [6]: −0.4153
Z score [7]: −0.415
Activity [5]: no

CN1CCN(C2=Nc3ccccc3Oc3ccc(Cl)cc32)CC1 [Loxapine succinate]
Z Score: −0.7477
Z score [1]: −0.748
Activity [5]: no

CC(=O)N[C@H](C(=O)O)C(C)(C)SN=O (racemic) [S-Nitroso-N-acetylpenicillamine]
Z Score [10]: −1.645
Z score [1]: −1.645
Activity [11]: no

CC(C)COC(=O)OCN1C(=O)CN(CCN2CC(=O)N(COC(=O)OCC(C)C)C(=O)C2)CC1=O [Sobuzoxane]
Z Score [10]: −9.6
Z score [1]: −9.600
Activity [11]: yes

CCN(CC)CCNC(=O)c1ccc(NC(C)=O)cc1.Cl [N-Acetylprocainamide hydrochloride]
Z Score: −4.557
Z score [1]: −4.557
Activity [2]: yes

COc1ccc2c(c1)c(CC(=O)N1CCOCC1)c(C)n2C(=O)c1ccc(Cl)cc1 [Indomethacin morpholinylamide]
Z Score (168 h, 3 µM): −3.398
Z score (168 h, 3 µM): −3.398
Activity [2]: yes

O=c1c2ccccc2[nH]c(=S)n1CCN1CCC(=C(c2ccc(F)cc2)c2ccc(F)cc2)CC1 [Diacylglycerol Kinase Inhibitor II]
Z Score [10]: −1.39
Z score [7]: −1.390
Activity [5]: no

CC(C)CC(NC(=O)C1OC1C(=O)O)C(=O)NCCCCNC(=N)N (stereo not shown) [E-64]
Z Score: −1.709
Z score [7]: −1.709
Activity [5]: no

Cl.NCCc1ccc(O)c(O)c1 [Dopamine hydrochloride]
Activity: no
Z Score: 1.352
Z score: 1.352

COc1cc([C@@H]2c3cc4c(cc3[C@H](O)[C@H]3COC(=O)[C@H]23)OCO4)cc(OC)c1OC [Podophyllotoxin]
Z Score: −11.15
Z score [1]: −11.147
Activity [2]: yes

NC(=O)c1ccc(OCC(O)CN2CC=C(c3ccc(F)cc3)CC2)cc1 (stereo not shown) [Ro 8-4304]
Z Score: −2.188
Z score [1]: −2.188
Activity [3]: no

CN(C)CCOC(=O)COc1ccc(Cl)cc1 [Centrophenoxine hydrochloride]
Z Score: −0.3302
Z score [7]: −0.330
Activity [5]: no

Cl.Fc1ccc(CN(C2=NCCN2)c2c(Cl)cccc2Cl)cc1 [IMID-4F hydrochloride]
Z Score: −1.906
Z score [1]: −1.906
Activity [5]: no

N=C(N)NN [Aminoguanidine hydrochloride]
Z Score [4]: −0.000731
Z score [8]: −0.001
Activity [9]: no

CN(C)CCCN1c2ccccc2Sc2ccc(Cl)cc21 [Chlorpromazine hydrochloride]
Z Score [4]: 0.7506
Z score [1]: 0.751
Activity [2]: no

C[C@@H]1O[C@@H](O[C@H]2C[C@@H](O)[C@]3(CO)[C@H]4[C@H](O)C[C@]5(C)[C@@H]([C@@H]6COC(=O)C6)CC[C@]5(O)[C@@H]4CC[C@]3(O)C2)[C@H](O)[C@H](O)[C@H]1O [Dihydroouabain]
Z Score: 0.2034
Z score [7]: 0.203
Activity [5]: no

O=C(O)c1nn(Cc2ccc(Cl)cc2Cl)c2ccccc12 [Lonidamine]
Z Score [4]: 0.4358
Z score [1]: 0.436
Activity [5]: no

C[C@]12CC[C@@H]3c4ccc(O)cc4CC[C@H]3[C@@H]1CCC2=O [Estrone]
Z Score [4]: 0.04081
Z score [1]: 0.041

COc1c2c(nc3ccccc13)OC(C(C)(O)CO)C2 (stereo not shown) [Dubinidine]
Z Score: −2.437
Z score [1]: −2.437
Activity [2]: yes

COc1cc(OC)c(C=C2C(O)=Nc3ccccc32)c(OC)c1 [IC 261]
Z Score: −1.63
Z score [1]: −1.630
Activity [3]: no

CN(C)C(=O)Oc1cccc([N+](C)(C)C)c1 [Neostigmine bromide]
Z Score: 1.228
Z score [1]: 1.228
Activity [11]: no

CCCN1CCO[C@@H]2c3cc(O)ccc3OC[C@H]21.Cl [(B1)-PD 128,907 hydrochloride]
Z Score: 1.164

OC[C@H]1O[C@@H](n2cnc3c(NC4CCCC4)ncnc32)[C@H](O)[C@@H]1O [N6-Cyclopentyladenosine]
Z Score (168 h, 3 µM): −0.7839
Z score (168 h, 3 µM): −0.784
Activity [5]: no

CC(=O)O.NC(=NCCC[C@H](N)C(=O)O)NO [NG-Hydroxy-L-arginine acetate]
Z Score [10]: −10.96
Z score [1]: −10.958
Activity [2]: yes

LY-310,762 hydrochloride
Z Score: 0.05111
Z score [1]: 0.051
Activity [2]: no

CNc1ncnc2c1ncn2[C@H]1C[C@H](OP(=O)(O)O)[C@@H](COP(=O)(O)O)O1 [MRS 2179]
Z Score: −1.246
Z score [1]: −1.246
Activity [11]: no

CCCCCCCCCCCCCCCC(=O)OC(CC(=O)O)C[N+](C)(C)C.[Cl-] (racemic) [Palmitoyl-DL-Carnitine chloride]
Z Score: 0.1995

CC(C)C[C@H](NC(=O)[C@H](O)[C@H](N)Cc1ccccc1)C(=O)O [Epibestatin hydrochloride]
Z Score [6]: −0.7869
Z score [7]: −0.787
Activity [5]: no

NC(=O)c1cc(N2CC2)c([N+](=O)[O-])cc1[N+](=O)[O-] [CB 1954]
Z Score [6]: −1.07
Z score [8]: −1.070
Activity [9]: no

Cc1nc(N=Nc2ccc(C(=O)O)cc2)c(COP(=O)(O)O)c(C=O)c1O [MRS 2159]
Z Score: −0.2666
Z score [1]: −0.267
Activity [11]: no

COC(=O)C1=CCCN(C)C1 [Arecoline hydrobromide]
Activity: no
Z Score: −0.111
Z score: −0.111

CCc1cc(Cl)c(OC)c(C(=O)NC[C@@H]2CCCN2CC)c1O.Cl [S-(−)-Eticlopride hydrohloride]
Z score [1]: −5.158
Activity [2]: yes

Cc1ccccc1C(OCCN(C)C)c1ccccc1 (stereo not shown) [Orphenadrine hydrochloride]
Z Score [4]: 0.4548
Z score [1]: 0.455

Cn1c(=O)c2[nH]cnc2n(C)c1=O [Theophylline]
Activity: no
Z Score [4]: 0.3699
Z score [8]: 0.370

NCCc1c[nH]c2ccc(O)cc12 [Serotonin hydrochloride]
Z Score (168 h, 3 µM): −2.197
Z score (168 h, 3 µM): −2.197
Activity [5]: no

CC1=NN=C(c2ccc(N)cc2)c2cc3c(cc2C1)OCO3 [GYKI 52466 hydrochloride]
Z Score [10]: −1.864
Z score [1]: −1.864
Activity [11]: no

Nc1nc(Nc2ccccc2)nc2c1ncn2[C@@H]1O[C@H](CO)[C@@H](O)[C@H]1O [2-Phenylaminoadenosine]
Z Score (168 h, 3 µM): 0.5728
Z score (168 h, 3 µM): 0.573
Activity [2]: no

Cc1ccccc1/C=C/C1=NCCN1 [Metrazoline oxalate]
Z Score (168 h, 3 µM): 0.1073
Z score (168 h, 3 µM): 0.107
Activity [11]: no

CNCCNS(=O)(=O)c1cccc2cnccc12.Cl.Cl [H-8 dihydrochloride]
Z Score: −1.583
Z score [1]: −1.583
Activity [11]: no
